# Reference: ChEMBL document CHEMBL2439969, “Replacement of Thr32 and Gln34 in the C-terminal neuropeptide Y fragment 25-36 by cis-cyclobutane and cis-cyclopentane β-amino acids shifts selectivity toward the Y(4) receptor” (J Med Chem, 2013)
# Residues, ends and D or L forms follow the SMILES beside them.
# Key:
# [1] = target: T1, Neuropeptide Y receptor type 5 (Homo sapiens, UniProt Q15761); assay: Displacement of Cy5-pNPY from human Y5 receptor expressed in human HEC-1B cells after 90 to 120 mins by flow cytometry; type: cell-based
# T1 sequence (Q15761 whole entry): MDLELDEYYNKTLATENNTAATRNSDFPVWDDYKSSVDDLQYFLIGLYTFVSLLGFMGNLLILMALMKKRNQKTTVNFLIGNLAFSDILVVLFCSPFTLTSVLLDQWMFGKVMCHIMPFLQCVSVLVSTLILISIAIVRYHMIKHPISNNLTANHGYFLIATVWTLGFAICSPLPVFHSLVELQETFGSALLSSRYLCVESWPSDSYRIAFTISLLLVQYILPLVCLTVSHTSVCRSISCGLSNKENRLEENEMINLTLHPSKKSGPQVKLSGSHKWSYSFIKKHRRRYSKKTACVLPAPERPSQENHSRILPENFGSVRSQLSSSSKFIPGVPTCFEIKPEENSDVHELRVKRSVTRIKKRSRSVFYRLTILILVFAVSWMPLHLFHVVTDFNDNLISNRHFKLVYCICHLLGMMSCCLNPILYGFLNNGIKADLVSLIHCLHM
# [2] = target: T2, Neuropeptide Y receptor type 2 (Homo sapiens, UniProt P49146); assay: Displacement of Cy5-pNPY from human Y2 receptor expressed in CHO cells after 90 to 120 mins by flow cytometry; type: cell-based
# T2 sequence (P49146 whole entry): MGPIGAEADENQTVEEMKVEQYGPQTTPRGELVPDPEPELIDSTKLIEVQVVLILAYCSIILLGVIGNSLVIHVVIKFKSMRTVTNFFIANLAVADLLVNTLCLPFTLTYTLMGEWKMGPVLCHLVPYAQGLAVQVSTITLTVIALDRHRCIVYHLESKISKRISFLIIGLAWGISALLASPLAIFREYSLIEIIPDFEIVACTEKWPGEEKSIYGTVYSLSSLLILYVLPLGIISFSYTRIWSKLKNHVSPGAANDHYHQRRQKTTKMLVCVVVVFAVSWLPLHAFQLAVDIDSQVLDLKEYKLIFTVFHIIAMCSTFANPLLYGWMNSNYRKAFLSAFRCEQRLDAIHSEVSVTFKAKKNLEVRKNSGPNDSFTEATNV
# [3] = target: T3, Neuropeptide Y receptor type 1 (Homo sapiens, UniProt P25929); assay: Displacement of Cy5-pNPY from human Y1 receptor expressed in HEL cells after 90 to 120 mins by flow cytometry; type: cell-based
# T3 sequence (P25929 whole entry): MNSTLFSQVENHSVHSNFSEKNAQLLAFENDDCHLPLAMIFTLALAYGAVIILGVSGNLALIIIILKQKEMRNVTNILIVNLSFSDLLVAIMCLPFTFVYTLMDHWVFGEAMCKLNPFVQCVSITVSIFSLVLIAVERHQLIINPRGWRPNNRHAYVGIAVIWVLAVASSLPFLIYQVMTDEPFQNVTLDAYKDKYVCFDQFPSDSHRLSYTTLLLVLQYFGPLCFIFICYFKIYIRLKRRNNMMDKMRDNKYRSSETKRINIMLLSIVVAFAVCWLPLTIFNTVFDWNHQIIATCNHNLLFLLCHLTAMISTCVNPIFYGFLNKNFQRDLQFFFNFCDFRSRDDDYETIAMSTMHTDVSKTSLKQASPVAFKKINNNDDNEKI
# [4] = target: T4, Neuropeptide Y receptor type 4 (Homo sapiens, UniProt P50391); assay: Displacement of Cy5-[K4]hPP from human Y4 receptor expressed in CHO cells after 90 to 120 mins by flow cytometry; type: cell-based
# T4 sequence (P50391 whole entry): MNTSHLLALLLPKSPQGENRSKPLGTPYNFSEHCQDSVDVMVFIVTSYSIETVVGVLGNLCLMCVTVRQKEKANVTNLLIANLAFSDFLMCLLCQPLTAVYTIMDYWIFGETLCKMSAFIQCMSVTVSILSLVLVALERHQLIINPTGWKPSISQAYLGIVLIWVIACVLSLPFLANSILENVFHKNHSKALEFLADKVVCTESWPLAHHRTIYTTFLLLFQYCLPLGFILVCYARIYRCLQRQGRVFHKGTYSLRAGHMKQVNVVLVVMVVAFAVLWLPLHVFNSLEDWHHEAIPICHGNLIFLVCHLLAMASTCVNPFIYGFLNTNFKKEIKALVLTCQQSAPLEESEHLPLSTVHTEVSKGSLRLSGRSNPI
# [5] = target: T4, Neuropeptide Y receptor type 4; assay: Binding affinity to human Y4 receptor
# [6] = target: T4, Neuropeptide Y receptor type 4; assay: Agonist activity at human Y4 receptor
structure (smiles),measurement,setting,value
CC[C@H](C)[C@H](NC(=O)[C@H](CC(C)C)NC(=O)[C@H](CCSC)NC(=O)[C@H](CC(N)=O)NC(=O)[C@@H](NC(=O)[C@H](Cc1ccc(O)cc1)NC(=O)[C@H](CCCNC(=N)N)NC(=O)[C@H](CCCNC(=N)N)NC(=O)[C@H](CC(C)C)NC(=O)[C@H](CC(=O)O)NC(=O)[C@H](C)NC(=O)[C@H](C)NC(=O)[C@H](Cc1ccc(O)cc1)NC(=O)[C@H](CCC(N)=O)NC(=O)[C@H](C)NC(=O)[C@H](CCSC)NC(=O)[C@H](CCC(N)=O)NC(=O)[C@H](CCC(=O)O)NC(=O)[C@@H]1CCCN1C(=O)[C@@H](NC(=O)[C@H](C)NC(=O)[C@H](CC(N)=O)NC(=O)[C@H](CC(=O)O)NC(=O)CNC(=O)[C@@H]1CCCN1C(=O)[C@H](Cc1ccc(O)cc1)NC(=O)[C@@H](NC(=O)[C@@H]1CCCN1C(=O)[C@H](CCC(=O)O)NC(=O)[C@H](CC(C)C)NC(=O)[C@@H]1CCCN1C(=O)[C@H](C)N)C(C)C)[C@@H](C)O)[C@@H](C)O)C(=O)N[C@@H](CCCNC(=N)N)C(=O)N1CCC[C@H]1C(=O)N[C@@H](CCCNC(=N)N)C(=O)N[C@H](N)Cc1ccc(O)cc1 (HELM PEPTIDE1{A.P.L.E.P.V.Y.P.G.D.N.A.T.P.E.Q.M.A.Q.Y.A.A.D.L.R.R.Y.T.N.M.L.I.R.P.R.[N[C@H](Cc1ccc(O)cc1)N[*:1]]}$$$$V2.0),Ki,[1],17 nM
same,Ki,[2],> 5000 nM
same,Ki,[3],440 nM
same,Ki,[4],> 1000 nM
same,Ki,[5],0.53 nM
same,EC50,[6],11 nM
